Results from the supplement of paper PMC10307832.

Key:
Test in all cases: relative viability (nuclei count vs DMSO), 5 days (fraction); higher = more cells survive
[1] = compound: Cc1ccc2nc(NCCN)c3ncc(C)n3c2c1 + CCNC(=O)c1noc(-c2cc(C(C)C)c(O)cc2O)c1-c1ccc(CN2CCOCC2)cc1 [Luminespib] (partner 0.01 µM)
Outline: (§1)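 Values are medians from duplicate plates. Each reflects relative viability, defined as the nuclei count of treated wells over that of vehicle wells. Lung cancer cell lines in 1536-well plates were pin-tool dosed one day after seeding with one drug alone or with a fixed anchor-drug dose plus five library-drug doses (not always all listed) in √10 steps, then fixed, stained and imaged at 4× after 5 days.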

Salubrinal + Trametinib = compound: O=C(/C=C/c1ccccc1)NC(NC(=S)Nc1cccc2cccnc12)C(Cl)(Cl)Cl [Salubrinal] + CC(=O)Nc1cccc(-n2c(=O)n(C3CC3)c(=O)c3c(Nc4ccc(I)cc4F)n(C)c(=O)c(C)c32)c1 [Trametinib] (partner 0.02 µM)
Outline: as §1

Salubrinal + Linsitinib = compound: O=C(/C=C/c1ccccc1)NC(NC(=S)Nc1cccc2cccnc12)C(Cl)(Cl)Cl [Salubrinal] + C[C@]1(O)C[C@@H](c2nc(-c3ccc4ccc(-c5ccccc5)nc4c3)c3c(N)nccn32)C1 [Linsitinib] (partner 1 µM)
Outline: as §1

Salubrinal + Decitabine = compound: O=C(/C=C/c1ccccc1)NC(NC(=S)Nc1cccc2cccnc12)C(Cl)(Cl)Cl [Salubrinal] + Nc1ncn([C@H]2C[C@H](O)[C@@H](CO)O2)c(=O)n1 [Decitabine] (partner 2 µM)
Outline: as §1

Cell Line | relative viability ([1]; first compound 0.04 µM) | relative viability ([1]; first compound 0.1265 µM) | relative viability ([1]; first compound 0.4 µM) | relative viability ([1]; first compound 1.265 µM) | relative viability ([1]; first compound 4 µM) | relative viability (Salubrinal + Trametinib; first compound 0.08 µM) | relative viability (Salubrinal + Trametinib; first compound 0.253 µM) | relative viability (Salubrinal + Trametinib; first compound 0.8 µM) | relative viability (Salubrinal + Trametinib; first compound 2.53 µM) | relative viability (Salubrinal + Trametinib; first compound 8 µM) | relative viability (Salubrinal + Linsitinib; first compound 0.08 µM) | relative viability (Salubrinal + Linsitinib; first compound 0.253 µM) | relative viability (Salubrinal + Linsitinib; first compound 0.8 µM) | relative viability (Salubrinal + Linsitinib; first compound 2.53 µM) | relative viability (Salubrinal + Linsitinib; first compound 8 µM) | relative viability (Salubrinal + Decitabine; first compound 0.08 µM) | relative viability (Salubrinal + Decitabine; first compound 0.253 µM) | relative viability (Salubrinal + Decitabine; first compound 0.8 µM) | relative viability (Salubrinal + Decitabine; first compound 2.53 µM) | relative viability (Salubrinal + Decitabine; first compound 8 µM)
HCC-15 | 0.463 | 0.239 | 0.258 | 0.373 | 0.16 | 0.444 | 0.36 | 0.379 | 0.378 | 0.381 | 0.946 | 0.801 | 0.952 | 0.964 | 0.87 | 0.723 | 0.555 | 0.773 | 0.762 | 0.61
HCC-44 | 1.07 | 1.04 | 1.06 | 1.05 | 0.591 | 1.19 | 1.11 | 1.16 | 1.09 | 1.04 | 0.761 | 0.754 | 0.731 | 0.703 | 0.65 | 0.955 | 0.969 | 0.935 | 0.934 | 0.919
HCC-78 |  |  |  |  |  | 0.869 | 0.692 | 0.652 | 0.791 | 0.686 | 0.59 | 0.558 | 0.796 | 0.481 | 0.508 | 0.735 | 0.661 | 0.816 | 0.606 | 0.624
HCC-366 |  |  |  |  |  | 0.509 |  | 0.379 | 0.306 | 0.233 | 1.01 | 0.408 | 0.883 | 0.671 | 0.57 | 0.371 |  | 0.374 | 0.392 | 0.301
HCC-827 | 0.741 | 0.589 | 0.689 | 0.58 | 0.8 | 0.586 | 0.544 | 0.515 | 0.5 | 0.548 | 0.992 | 0.9 | 1 | 0.97 | 0.941 | 0.303 | 0.335 | 0.361 | 0.345 | 0.341
HOP-62 | 0.916 | 0.941 | 0.648 | 0.965 | 0.913 | 0.438 | 0.369 | 0.382 | 0.343 | 0.338 | 1.07 | 0.918 | 1.1 | 0.977 | 0.998 | 0.192 | 0.206 | 0.196 | 0.187 | 0.224
IA-LM |  |  |  |  |  |  |  |  |  |  | 0.256 | 0.472 | 0.704 | 0.519 | 1.09 |  |  |  |  | 
LC-2-ad | 0.891 | 0.947 | 1.13 | 1.04 | 0.798 | 1.01 | 0.848 | 0.885 | 0.946 | 0.917 | 0.932 | 0.812 | 0.912 | 0.817 | 0.844 | 0.751 | 0.63 | 0.792 | 0.771 | 0.813
NCI-H522 | 1.26 | 1.12 | 1.04 | 1.14 | 1.17 | 0.631 | 0.802 | 0.639 | 0.859 | 0.709 |  |  |  |  |  | 0.711 | 1.19 | 0.617 | 0.705 | 0.729
NCI-H1299 |  |  |  |  |  |  |  |  |  |  | 0.964 | 0.876 | 1.09 | 1 | 0.96 |  |  |  |  | 
NCI-H1563 | 0.491 | 0.509 | 0.517 | 0.466 | 0.485 |  |  |  |  |  | 1.1 | 1.26 | 1.14 | 1.21 | 1.12 |  |  |  |  | 
NCI-H1623 | 0.478 | 0.684 | 0.51 | 0.346 | 0.348 |  |  |  |  |  |  |  |  |  |  |  |  |  |  | 
NCI-H1648 |  |  |  |  |  | 0.657 | 0.456 | 0.662 | 0.492 | 0.325 |  |  |  |  |  | 0.615 | 0.483 | 0.632 | 0.493 | 0.366
NCI-H1650 | 0.242 | 0.213 | 0.195 | 0.214 | 0.212 | 0.691 | 0.5 | 0.592 | 0.517 | 0.54 |  |  |  |  |  | 0.522 | 0.453 | 0.417 | 0.476 | 0.455
NCI-H1703 |  |  |  |  |  |  |  |  |  |  | 0.515 | 0.997 | 0.712 | 0.685 | 0.644 |  |  |  |  | 
NCI-H2170 | 0.637 | 0.699 | 0.516 | 0.855 | 0.64 | 1.1 | 0.658 | 0.979 | 0.941 | 0.925 |  |  |  |  |  | 0.483 | 0.452 | 0.496 | 0.472 | 0.461
NCI-H2228 | 0.147 | 0.149 | 0.181 | 0.145 | 0.149 | 0.457 |  | 0.745 | 0.385 | 0.622 | 0.768 | 0.813 | 0.791 | 0.581 | 0.629 |  |  |  |  | 
NCI-H2342 | 0.797 | 0.638 | 0.616 | 0.719 | 0.677 | 0.966 | 0.806 | 0.758 | 0.775 | 0.88 |  |  |  |  |  | 0.797 | 0.82 | 0.657 | 0.769 | 0.595
SW 900 | 0.168 | 0.161 |  | 0.149 | 0.167 | 0.69 | 0.765 | 0.7 | 0.774 | 1 |  |  |  |  |  | 0.483 | 0.466 | 0.512 | 0.419 | 0.519
